These are literature values, as cited in patent US9272049B2, “Methods of stimulating fat mobilization using a polymer conjugated polyphenol” (NANOPHARMACEUTICALS LLC, priority 2005, dated 2016).

Series [1] has as its system insulin-sensitive mammalian cell lines. The following applies: several insulin-sensitive mammalian cell lines.

On to `Oc1ccc(C=Cc2cc(O)cc(O)c2)cc1` [Resveratrol], for which the fat accumulation entry (in the series on C. elegans; in series [1]) was “reduce fat accumulation” each time.
